How the values were obtained:
Phytophthora infestans = format: in vivo; settings: tomato, direct protectant foliar spray
Pyricularia oryzae = format: in vivo; settings: rice seedlings, direct therapeutic foliar spray, 600 ppm, 4-5 days
Alternaria solani = assay: Activity against tomato early blight (AS); format: in vivo; settings: Table VI; tomato seedlings, contact prophylactic foliar spray, 4 days
Method: b) Activity against tomato early blight (Alternaria solani; AS) This test measures the contact prophylactic activity of test compounds applied as a foliar spray. Tomato seedlings (cv Outdoor Girl) are grown to the stage at which the second true leaf is expanded. The plants are treated using an automated sprayline as described under (a). Test compounds are applied as solutions or suspensions in a mixture of acetone and water (50:50 v/v) containing 0.04% surfactant ("TWEEN 20"--Trade Mark). After drying the plants are kept for 24 hours in a glasshouse at 20° C. and 40% R.H., followed by inoculation of the leaf upper surfaces with a suspension of A. solani conidia containing 10^4 spores/ml. For 4 days after inoculation plants are kept moist in a humidity compartment at 21° C. Disease is assessed 4 days after inoculation, based on the percentage of leaf surface area covered by lesions when compared with control plants. The extent of disease control in all the above tests is expressed as a rating compared with either an untreated control or a diluent-sprayed-control, according to the criteria: […]

Venturia inaequalis = assay: Activity against apple scab in-vitro (VII); format: cell-based; settings: 10 ppm, 10 days, 20° C., mycelial growth
Method: (j) Activity against apple scab in-vitro (Venturia inaequalis: VII) This test measures the in-vitro activity of compounds against V. inaequalis that causes apple scab. The test compound in acetone is added into 4 ml aliquots of half strength Potato Dextrose Broth dispensed in 25-compartment petri dishes to give final concentrations of 10 ppm. The fungal inoculum consists of mycelial fragments and spores of V. inaequalis grown on malt agar and added to the broth to provide 5×10^4 propagules/ml broth. Petri dishes are incubated at 20° C. for 10 days until the assessment of mycelial growth. The extent of disease control in all the above tests is expressed as a rating compared with either an untreated control or a diluent-sprayed-control, according to the criteria: […]

[1] = system: Erysiphe graminis f.sp. hordei; assay: Direct protectant activity against barley powdery mildew (EGP); format: in vivo; settings: direct protectant foliar spray, 8 days
Method: (f) Direct protectant activity against barley powdery mildew (Erysiphe graminis f.sp. hordei; EGP) The test is a direct protectant foliar spray. Leaves of barley seedlings (cv Golden Promise) at the single leaf stage are sprayed with the test compound as described under (a). After drying, the plants are kept for 24 hours in a glasshouse at 18° C. and 40% R.H. Then the plants are inoculated by dusting with mildew conidia and kept at 18° C. and 40% R.H. for 8 days. Assessment is based on the percentage of leaf area covered by sporulation compared with that on leaves of control plants. The extent of disease control in all the above tests is expressed as a rating compared with either an untreated control or a diluent-sprayed-control, according to the criteria: […]

[2] = system: Erysiphe graminis f.sp. hordei; assay: Activity against barley powdery mildew, direct therapeutic (EGT); format: in vivo; settings: direct therapeutic foliar spray, 600 ppm, up to 7 days
Method: (e) Activity against barley powdery mildew (Erysiphe graminis f.sp. hordei; EGT) The test is a direct therapeutic foliar spray. Leaves of barley seedlings, (cv. Golden Promise) at the single leaf stage are inoculated by dusting with mildew conidia one day prior to treatment with the test compound. The inoculated plants are kept overnight at glasshouse ambient temperature (18° C.) and humidity (40%) prior to treatment. The plants are sprayed with the test compound at a dosage of 600 ppm using an automated sprayline as described under (a). After drying, plants are returned to a compartment at 18° C. and 40% humidity for up to 7 days. Assessment is based on the percentage of leaf area covered by sporulation compared with that on leaves of control plants. The extent of disease control in all the above tests is expressed as a rating compared with either an untreated control or a diluent-sprayed-control, according to the criteria: […]

Plasmopara viticola = assay: Antisporulant activity against vine downy mildew (PVA); format: in vivo; settings: vine leaves, antisporulant foliar spray, 600 ppm, 750 l/ha
Method: (a) Antisporulant activity against vine downy mildew (Plasmopara viticola; PVA) The test is a direct antisporulant one using a foliar spray. The lower surfaces of leaves of whole vine plants (cv Cabernet Sauvignon), approximately 8 cm high, are inoculated by spraying with an aqueous suspension containing 5×10^4 zoosporangia/ml. The inoculated plants are kept for 24 hours at 21° C. in a high humidity compartment, then 24 hours at glasshouse ambient temperature and humidity. Infected leaves are sprayed on their lower surfaces with a solution of active material in 1:1 water/acetone containing 0.04% "TWEEN 20" (Trade Mark; a polyoxyethylene sorbitan ester surfactant). Plants are treated using an automated sprayline with an atomising nozzle. The concentration of the compound is 600 ppm, and the spray volume is 750 l/ha. After spraying, the plants are returned to normal glasshouse conditions for 96 hours and are then transferred to the high humidity compartment for 24 hours to induce sporulation. Assessment is based on the percentage of the leaf area covered by sporulation compared with that on control leaves. The extent of disease control in all the above tests is expressed as a rating compared with either an untreated control or a diluent-sprayed-control, according to the criteria: […]

Leptosphaeria nodorum = assay: Activity against wheat leafspot (LN); format: in vivo; settings: direct therapeutic foliar spray, 600 ppm, 6-8 days
Method: (d) Activity against wheat leafspot (Leptosphaeria nodorum; LN.) The test is a direct therapeutic foliar spray. Leaves of wheat plants (cv Norman), at the single leaf stage, are inoculated by spraying with an aqueous suspension containing 1.5×10^6 conidia/ml. The inoculated plants are kept for 24 hours in a high humidity compartment prior to treatment. The plants are sprayed with a solution of the test compound at a dosage of 600 ppm using an automated sprayline as described under (a). After drying, the plants are kept for 6-8 days at 22° C. and moderate humidity (70%). Assessment is based on the density of lesions per leaf compared with that on leaves of control plants. The extent of disease control in all the above tests is expressed as a rating compared with either an untreated control or a diluent-sprayed-control, according to the criteria: […]

[3] = system: Pseudocercosporella herpotrichoides; assay: Activity against wheat eyespot in-vitro (PHI); format: cell-based; settings: 10 ppm, 10 days, 20° C., mycelial growth
Method: (h) Activity against wheat eyespot in-vitro (Pseudocercosporella herpotrichoides; pHI) This test measures the in vitro activity of compounds against the fungus causing wheat eyespot. The test compound is dissolved or suspended in acetone and is added into 4 ml aliquots of half strength Potato Dextrose Broth (PDB) dispended in 25-compartment petri dishes to give a final concentration of 10ppm. The fungal inoculum consists of mycelial fragments of P. herpotrichoides grown in half strength PDB in shaken flasks and added to the broth to provide 5×10^4 fragments/ml broth. Petri dishes are incubated at 20° C. for 10 days until the assessment of mycelial growth. The extent of disease control in all the above tests is expressed as a rating compared with either an untreated control or a diluent-sprayed-control, according to the criteria: […]

Rhizoctonia solani = assay: Activity against Rhizoctonia in-vitro (RSI); format: cell-based; settings: 10 ppm, 10 days, 20° C., mycelial growth
Method: (i) Activity against Rhizoctonia in-vitro (Rhizoctonia solani: RSI) This test measures the in-vitro activity of compounds against R. solani that causes stem and root rots. The test compound in acetone is added into 4 ml aliquots of half strength Potato Dextrose Broth dispensed in 25-compartment petri dishes to give final concentrations of 10 ppm. The fungal inoculum consists of mycelial fragments of R. solani growth in half strength PDB in shaken culture flasks and added to the broth to provide 5×10^4 fragments/ml broth. Petri dishes are incubated at 20° C. for 10 days until the assessment of mycelial growth. The extent of disease control in all the above tests is expressed as a rating compared with either an untreated control or a diluent-sprayed-control, according to the criteria: […]

Botrytis cinerea = assay: Direct protectant activity against broad bean grey mould (BCB); format: in vivo; settings: direct protectant foliar spray, 600 ppm, 4 days
Method: (c) Direct protectant activity against broad bean grey mould (Botrytis cinerea; BCB) The test is a direct protectant foliar spray. The upper surfaces of leaves of broad bean plants with two leaf pairs (cv The Sutton) are sprayed with the test compound at a dosage of 600 ppm using an automated sprayline as described under (a). 24 hours after spraying the leaves are inoculated with an aqueous suspension containing 10^6 conidia/ml. For 4 days after inoculation plants are kept in a high humidity compartment at 22° C. Disease is assessed 4 days after inoculation, based on the percentage of leaf surface area covered by lesions. The extent of disease control in all the above tests is expressed as a rating compared with either an untreated control or a diluent-sprayed-control, according to the criteria: […]

Row | SMILES | disease control rating PIP (Phytophthora infestans) | disease control rating PO (Pyricularia oryzae) | disease control rating AS (Alternaria solani) | disease control rating VII (Venturia inaequalis) | disease control rating EGP [1] | disease control rating EGT [2] | disease control rating PVA (Plasmopara viticola) | disease control rating LN (Leptosphaeria nodorum) | disease control rating PHI [3] | disease control rating RSI (Rhizoctonia solani) | disease control rating BCB (Botrytis cinerea)
1 | CC(C)(C)C1CCC2(CC1)CC(N1CCC(c3ccccc3)CC1)CO2 (stereo not drawn) [Compound 4] | 0 (less than 50% disease control) | 0 (less than 50% disease control) | 0 (less than 50% disease control) | 1 (about 50-80% disease control) | 2 (greater than 80% disease control) | 2 (greater than 80% disease control) | 0 (less than 50% disease control) | 1 (about 50-80% disease control) | 1 (about 50-80% disease control) | 0 (less than 50% disease control) | 0 (less than 50% disease control)
2 | CCCCCCCNC1COC2(CCC(C(C)(C)C)CC2)C1 (stereo not drawn) [Compound 5] | 0 (less than 50% disease control) | 0 (less than 50% disease control) | 0 (less than 50% disease control) | 0 (less than 50% disease control) | 2 (greater than 80% disease control) | 2 (greater than 80% disease control) | 0 (less than 50% disease control) | 0 (less than 50% disease control) | 0 (less than 50% disease control) | 1 (about 50-80% disease control) | 1 (about 50-80% disease control)
3 | CC(C)(C)C1CCC2(CC1)CC(N1CCC3CCCCC3C1)CO2 (stereo not drawn) [Compound 6] | 0 (less than 50% disease control) | 0 (less than 50% disease control) | 0 (less than 50% disease control) | 1 (about 50-80% disease control) | 2 (greater than 80% disease control) | 2 (greater than 80% disease control) | 0 (less than 50% disease control) | 0 (less than 50% disease control) | 0 (less than 50% disease control) | 1 (about 50-80% disease control) | 1 (about 50-80% disease control)
4 | CCCCCCCCNC1COC2(CCC(C(C)(C)C)CC2)C1 (stereo not drawn) [Compound 7] | 0 (less than 50% disease control) | 0 (less than 50% disease control) | 0 (less than 50% disease control) | 2 (greater than 80% disease control) | 2 (greater than 80% disease control) | 2 (greater than 80% disease control) | 0 (less than 50% disease control) | 0 (less than 50% disease control) | 2 (greater than 80% disease control) | 2 (greater than 80% disease control) | 1 (about 50-80% disease control)
5 | CCCCCNC1COC2(CCC(C(C)(C)C)CC2)C1 (stereo not drawn) [Compound 8] | 0 (less than 50% disease control) | 0 (less than 50% disease control) | 0 (less than 50% disease control) | 1 (about 50-80% disease control) | 2 (greater than 80% disease control) | 2 (greater than 80% disease control) | 0 (less than 50% disease control) | 0 (less than 50% disease control) | 1 (about 50-80% disease control) | 0 (less than 50% disease control) | 1 (about 50-80% disease control)
6 | CC(C)(C)C1CCC2(CC1)CC(N1CCCC1)CO2 (stereo not drawn) [Compound 9] | 0 (less than 50% disease control) | 0 (less than 50% disease control) | 0 (less than 50% disease control) | 1 (about 50-80% disease control) | 2 (greater than 80% disease control) | 2 (greater than 80% disease control) | 0 (less than 50% disease control) | 1 (about 50-80% disease control) | 1 (about 50-80% disease control) | 0 (less than 50% disease control) | 0 (less than 50% disease control)

From US5591741A, “Fungicidal spiroheterocyclic derivatives” (American Cyanamid Company, priority 1993, dated 1997)
